Reference: ChEMBL document CHEMBL5120873, “Discovery of novel benzimidazole derivatives as potent p300 bromodomain inhibitors with anti-proliferative activity in multiple cancer cells” (Bioorg Med Chem, 2022)
pIC50: −log10 of the molar value. Blank lines part the entries; values can stand above or below the molecule they belong to. Active and inactive are the calls of the source. The calls are words filed in the database; no cut-off is given here.

Assays:
[1] = target: T1, Histone acetyltransferase p300 (Homo sapiens, UniProt Q09472); assay: Binding affinity to recombinant EP300 bromodomain (unknown origin) assessed as change in melting temperature by differential scanning fluorimetry method
[2] = target: T1, Histone acetyltransferase p300; assay: Inhibition of EP300 bromodomain (unknown origin) incubated for 20 mins by AlphaLISA method
OPM-2 [3] = assay: Induction of apoptosis in human OPM-2 cells assessed as apoptotic cells at 3 uM incubated for 72 hrs by annexin V-FITC/PI staining based flow cytometry analysis; assay type: functional
SCC-9 = assay: Antiproliferative activity against human SCC-9 cells incubated for 5 days by CCK-8 method; assay type: functional, cell-based; conditions: SCC-9, 120 h
OPM-2 [4] = assay: Antiproliferative activity against human OPM-2 cells incubated for 5 days by CCK-8 method; assay type: functional, cell-based; conditions: OPM-2, 120 h
[5] = target: T2, CREB-binding protein/Histone acetyltransferase p300 (Homo sapiens) (UniProt Q09472+Q92793); assay: Inhibition of EP300/CBP bromodomain in human 22Rv1 cells assessed as suppression of c-myc expression at 0.8 to 5 uM incubated for 3 days by Western blot analysis; assay type: cell-based; conditions: dose 0.8-5 µM, time 3.0 day
[6] = target: T2, CREB-binding protein/Histone acetyltransferase p300 (Homo sapiens); assay: Inhibition of EP300/CBP bromodomain in human SCC-9 cells assessed as suppression of c-myc expression at 0.8 to 5 uM incubated for 3 days by Western blot analysis; assay type: cell-based; conditions: dose 0.8-5 µM, time 3.0 day
CWR22R = assay: Antiproliferative activity against human 22Rv1 cells incubated for 5 days by CCK-8 method; assay type: functional, cell-based; conditions: 22Rv1, 120 h
[7] = target: T2, CREB-binding protein/Histone acetyltransferase p300 (Homo sapiens); assay: Inhibition of EP300/CBP bromodomain in human OPM-2 cells assessed as suppression of c-myc expression at <= 1 uM incubated for 3 days by Western blot analysis; assay type: cell-based; conditions: time 3.0 day
MCF7 = assay: Antiproliferative activity against human MCF7 cells incubated for 5 days by CCK-8 method; assay type: functional, cell-based; conditions: MCF7, 120 h
OPM-2 [8] = assay: Induction of cell cycle arrest in human OPM-2 cells assessed as accumulation of cells at G1/G0 phase at 5 uM incubated for 48 hrs by PI staining based flow cytometry analysis (reference value: 34.25 %); assay type: functional
[9] = target: T2, CREB-binding protein/Histone acetyltransferase p300 (Homo sapiens); assay: Inhibition of EP300/CBP bromodomain in human OPM-2 cells assessed as suppression of c-myc expression incubated for 3 days by Western blot analysis; assay type: cell-based; conditions: dose 0.8-5 µM, time 3.0 day, DDE = dose-dependent effect

T2 sequence (Q09472 whole entry, looked up): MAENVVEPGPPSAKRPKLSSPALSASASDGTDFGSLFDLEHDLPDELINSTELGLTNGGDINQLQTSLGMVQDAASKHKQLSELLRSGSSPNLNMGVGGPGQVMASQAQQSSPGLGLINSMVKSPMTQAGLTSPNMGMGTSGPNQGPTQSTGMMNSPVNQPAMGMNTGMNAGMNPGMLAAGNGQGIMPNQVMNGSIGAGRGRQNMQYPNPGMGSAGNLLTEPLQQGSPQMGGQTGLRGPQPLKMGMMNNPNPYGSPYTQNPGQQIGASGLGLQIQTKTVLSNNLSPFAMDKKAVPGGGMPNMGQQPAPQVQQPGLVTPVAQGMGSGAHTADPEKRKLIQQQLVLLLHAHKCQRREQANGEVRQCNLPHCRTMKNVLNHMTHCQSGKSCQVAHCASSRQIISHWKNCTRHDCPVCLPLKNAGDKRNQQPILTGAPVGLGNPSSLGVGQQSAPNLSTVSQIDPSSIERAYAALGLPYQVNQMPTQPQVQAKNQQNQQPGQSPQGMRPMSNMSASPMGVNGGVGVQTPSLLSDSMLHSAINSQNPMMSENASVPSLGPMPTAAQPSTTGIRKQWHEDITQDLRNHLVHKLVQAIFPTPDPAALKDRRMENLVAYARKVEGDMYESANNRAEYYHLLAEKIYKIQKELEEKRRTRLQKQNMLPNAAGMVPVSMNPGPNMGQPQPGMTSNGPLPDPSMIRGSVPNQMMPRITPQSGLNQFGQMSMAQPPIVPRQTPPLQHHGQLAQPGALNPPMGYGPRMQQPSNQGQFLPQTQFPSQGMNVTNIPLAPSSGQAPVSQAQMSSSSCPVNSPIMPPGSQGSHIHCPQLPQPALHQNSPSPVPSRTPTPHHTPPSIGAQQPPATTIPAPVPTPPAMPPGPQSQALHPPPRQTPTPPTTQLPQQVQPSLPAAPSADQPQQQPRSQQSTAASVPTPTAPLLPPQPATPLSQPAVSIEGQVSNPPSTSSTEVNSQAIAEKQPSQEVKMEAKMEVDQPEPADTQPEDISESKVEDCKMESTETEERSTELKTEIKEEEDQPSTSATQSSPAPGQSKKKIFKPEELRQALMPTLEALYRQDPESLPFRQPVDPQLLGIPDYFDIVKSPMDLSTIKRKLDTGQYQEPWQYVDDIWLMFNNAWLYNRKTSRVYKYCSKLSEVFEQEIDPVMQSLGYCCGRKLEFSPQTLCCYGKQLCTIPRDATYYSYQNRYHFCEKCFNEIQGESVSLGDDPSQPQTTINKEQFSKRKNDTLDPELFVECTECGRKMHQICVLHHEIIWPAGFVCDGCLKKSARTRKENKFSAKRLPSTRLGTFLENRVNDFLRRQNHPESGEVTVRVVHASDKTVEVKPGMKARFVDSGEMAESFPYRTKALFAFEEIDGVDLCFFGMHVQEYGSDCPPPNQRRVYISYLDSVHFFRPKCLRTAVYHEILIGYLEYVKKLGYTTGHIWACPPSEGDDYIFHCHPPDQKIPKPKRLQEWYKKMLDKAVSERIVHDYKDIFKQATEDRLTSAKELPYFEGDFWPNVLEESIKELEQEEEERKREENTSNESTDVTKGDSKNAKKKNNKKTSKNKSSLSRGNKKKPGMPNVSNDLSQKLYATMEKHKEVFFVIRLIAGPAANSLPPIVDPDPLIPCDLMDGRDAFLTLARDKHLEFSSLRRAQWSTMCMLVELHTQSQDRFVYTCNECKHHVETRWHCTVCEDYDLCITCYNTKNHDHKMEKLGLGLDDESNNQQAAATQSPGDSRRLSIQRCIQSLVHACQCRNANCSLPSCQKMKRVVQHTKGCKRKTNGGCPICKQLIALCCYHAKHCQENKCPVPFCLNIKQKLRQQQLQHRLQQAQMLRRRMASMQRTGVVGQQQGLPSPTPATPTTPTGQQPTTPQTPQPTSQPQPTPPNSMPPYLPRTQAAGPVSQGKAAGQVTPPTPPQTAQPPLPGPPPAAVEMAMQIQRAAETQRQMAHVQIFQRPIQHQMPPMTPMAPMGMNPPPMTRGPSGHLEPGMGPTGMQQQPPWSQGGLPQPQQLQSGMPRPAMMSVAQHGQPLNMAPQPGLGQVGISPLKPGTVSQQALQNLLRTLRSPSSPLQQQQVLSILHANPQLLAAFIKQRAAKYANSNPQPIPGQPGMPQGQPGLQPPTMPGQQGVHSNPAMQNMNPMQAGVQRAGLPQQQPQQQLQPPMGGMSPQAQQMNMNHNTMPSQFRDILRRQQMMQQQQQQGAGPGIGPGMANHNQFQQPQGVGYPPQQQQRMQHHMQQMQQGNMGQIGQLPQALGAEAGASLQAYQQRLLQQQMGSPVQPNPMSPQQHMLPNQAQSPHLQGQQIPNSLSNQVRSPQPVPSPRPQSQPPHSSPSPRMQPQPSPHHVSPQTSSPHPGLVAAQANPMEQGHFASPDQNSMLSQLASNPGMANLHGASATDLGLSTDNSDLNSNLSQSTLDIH
T2 sequence (Q92793 whole entry, looked up): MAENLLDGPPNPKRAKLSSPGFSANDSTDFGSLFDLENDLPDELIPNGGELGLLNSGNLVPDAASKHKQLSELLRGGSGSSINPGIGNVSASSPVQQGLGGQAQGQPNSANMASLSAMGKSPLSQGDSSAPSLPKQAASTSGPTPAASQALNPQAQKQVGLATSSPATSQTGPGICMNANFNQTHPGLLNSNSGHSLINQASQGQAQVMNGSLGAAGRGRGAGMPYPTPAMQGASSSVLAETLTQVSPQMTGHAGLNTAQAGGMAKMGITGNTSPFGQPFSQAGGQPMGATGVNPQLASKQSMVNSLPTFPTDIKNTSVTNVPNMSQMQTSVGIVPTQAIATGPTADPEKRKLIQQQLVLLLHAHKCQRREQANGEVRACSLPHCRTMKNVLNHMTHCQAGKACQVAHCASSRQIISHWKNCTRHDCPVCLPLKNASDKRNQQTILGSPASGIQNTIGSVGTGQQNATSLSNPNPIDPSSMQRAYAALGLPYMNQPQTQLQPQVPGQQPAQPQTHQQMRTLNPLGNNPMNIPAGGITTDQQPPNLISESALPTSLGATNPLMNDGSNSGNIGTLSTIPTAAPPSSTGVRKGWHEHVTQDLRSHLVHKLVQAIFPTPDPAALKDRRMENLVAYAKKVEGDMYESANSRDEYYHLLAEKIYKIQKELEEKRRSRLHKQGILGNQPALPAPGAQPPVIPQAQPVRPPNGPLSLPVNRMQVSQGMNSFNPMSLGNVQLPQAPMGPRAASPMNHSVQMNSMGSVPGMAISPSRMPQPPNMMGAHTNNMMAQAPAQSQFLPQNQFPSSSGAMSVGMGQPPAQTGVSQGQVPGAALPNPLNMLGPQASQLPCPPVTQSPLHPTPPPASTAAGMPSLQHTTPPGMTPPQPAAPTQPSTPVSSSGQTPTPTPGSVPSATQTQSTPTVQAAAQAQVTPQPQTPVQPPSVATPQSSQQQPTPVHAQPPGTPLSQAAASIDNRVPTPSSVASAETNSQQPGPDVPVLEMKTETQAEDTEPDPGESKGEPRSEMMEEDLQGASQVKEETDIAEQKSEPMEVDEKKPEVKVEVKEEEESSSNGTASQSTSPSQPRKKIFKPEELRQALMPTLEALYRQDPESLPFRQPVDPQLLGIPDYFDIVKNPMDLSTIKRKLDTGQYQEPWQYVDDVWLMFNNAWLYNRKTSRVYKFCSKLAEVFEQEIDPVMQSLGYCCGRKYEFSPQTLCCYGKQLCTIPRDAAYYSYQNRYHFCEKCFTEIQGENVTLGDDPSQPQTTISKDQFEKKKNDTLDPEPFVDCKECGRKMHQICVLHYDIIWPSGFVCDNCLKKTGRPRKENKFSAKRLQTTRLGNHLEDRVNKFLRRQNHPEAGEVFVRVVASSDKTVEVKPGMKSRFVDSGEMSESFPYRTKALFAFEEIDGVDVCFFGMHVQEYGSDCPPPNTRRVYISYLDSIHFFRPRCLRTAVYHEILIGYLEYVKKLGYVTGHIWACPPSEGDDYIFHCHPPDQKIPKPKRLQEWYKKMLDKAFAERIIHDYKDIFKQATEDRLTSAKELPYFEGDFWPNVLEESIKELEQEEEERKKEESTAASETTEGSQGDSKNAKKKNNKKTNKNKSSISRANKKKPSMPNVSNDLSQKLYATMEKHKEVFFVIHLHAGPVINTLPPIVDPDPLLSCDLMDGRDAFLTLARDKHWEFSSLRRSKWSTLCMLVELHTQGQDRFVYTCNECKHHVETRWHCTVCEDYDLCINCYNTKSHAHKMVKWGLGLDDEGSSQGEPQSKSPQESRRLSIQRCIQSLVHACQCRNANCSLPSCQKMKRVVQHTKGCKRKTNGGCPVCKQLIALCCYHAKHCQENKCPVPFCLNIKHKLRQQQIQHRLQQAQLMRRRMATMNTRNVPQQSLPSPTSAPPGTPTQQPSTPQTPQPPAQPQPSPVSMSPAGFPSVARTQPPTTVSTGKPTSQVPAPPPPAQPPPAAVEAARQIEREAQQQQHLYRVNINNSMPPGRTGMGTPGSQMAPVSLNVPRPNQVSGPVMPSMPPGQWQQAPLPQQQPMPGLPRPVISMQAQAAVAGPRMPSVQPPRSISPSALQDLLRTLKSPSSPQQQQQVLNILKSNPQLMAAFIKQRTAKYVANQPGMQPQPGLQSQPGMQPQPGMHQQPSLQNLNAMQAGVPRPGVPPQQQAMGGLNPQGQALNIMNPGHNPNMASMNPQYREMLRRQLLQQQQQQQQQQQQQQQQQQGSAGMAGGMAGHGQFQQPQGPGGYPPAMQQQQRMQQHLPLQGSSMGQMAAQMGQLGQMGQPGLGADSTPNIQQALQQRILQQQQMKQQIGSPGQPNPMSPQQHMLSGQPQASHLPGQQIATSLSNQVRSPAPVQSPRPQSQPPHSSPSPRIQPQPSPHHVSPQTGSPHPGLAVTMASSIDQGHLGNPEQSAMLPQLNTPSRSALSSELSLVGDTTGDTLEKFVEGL
T1 sequence (Q09472 whole entry): as the sequence (Q09472 whole entry, looked up) above

SMILES: COc1ccc(CCc2nc3cc(NS(C)(=O)=O)ccc3n2C[C@H](C)N2CCOCC2)cc1Cl
ΔTm [1]: 2.51 °C

SMILES: COc1ccc(CCc2nc3cc(C(C)=O)ccc3n2C[C@H](C)N2CCOCC2)cc1Cl
ΔTm [1]: 4.1 °C

SMILES: CNC(=O)Nc1ccc2c(c1)nc(CCc1ccc(OC)c(Cl)c1)n2C[C@H](C)N1CCOCC1
ΔTm [1]: 3.53 °C

SMILES: CNC(=O)c1ccc2c(c1)nc(CCc1ccc(OC)c(Cl)c1)n2C[C@H](C)N1CCOCC1
ΔTm [1]: 2.1 °C

SMILES: Cc1noc(C)c1-c1ccc2c(c1)nc(C1CC1c1ccccc1)n2[C@H]1CC[C@H](O)CC1 (stereo partly drawn)
pIC50 [2]: 6.58

SMILES: COc1ccc(CCc2nc3cc(NC(C)=O)ccc3n2C[C@H](C)N2CCOCC2)cc1Cl
ΔTm [1]: 2.97 °C

SMILES: COc1ccc(CCc2nc3cc(S(C)(=O)=O)ccc3n2C[C@H](C)N2CCOCC2)cc1Cl
ΔTm [1]: 1.07 °C

SMILES: COc1ccc(CCc2nc3cc(-c4cnn(C)c4)ccc3n2C[C@H](C)N2CCOCC2)cc1Cl
ΔTm [1]: 2.95 °C

SMILES: COc1ccc(CCc2nc3cc(-c4c(C)noc4C)ccc3n2C[C@H](C)N2CCOCC2)cc1Cl
ΔTm [1]: 4.5 °C
pIC50 (SCC-9): 5.19
pIC50 (OPM-2 [4]): 5.58
pIC50 (CWR22R): < 5.00
pIC50 (MCF7): 5.62

SMILES: COc1ccc(CCc2nc3cc(-c4c(C)noc4C)ccc3n2C2CC(C)(C)OC(C)(C)C2)cc1Cl
pIC50 [2]: 6.95

SMILES: COc1ccc(CCc2nc3cc(CC#N)ccc3n2C[C@H](C)N2CCOCC2)cc1Cl
ΔTm [1]: 1.44 °C

SMILES: COc1ccc2c(Cc3nc4cc(-c5c(C)noc5C)ccc4n3[C@H]3CC[C@H](O)CC3)cc(=O)oc2c1
pIC50 [2]: 7.32

SMILES: COc1ccc(CCc2nc3cc(-c4c(C)noc4C)ccc3n2C2CCC(F)(F)CC2)cc1Cl
pIC50 [2]: 7.08

SMILES: COc1ccc(CCc2nc3cc(-c4cnn(C)n4)ccc3n2C[C@H](C)N2CCOCC2)cc1Cl
ΔTm [1]: 4.34 °C

SMILES: COc1ccc(CCc2nc3cc(C4(C)COC4)ccc3n2C[C@H](C)N2CCOCC2)cc1Cl
ΔTm [1]: 2.21 °C

More lines, main results first:

pIC50 [2]: 7.03
SMILES: COc1ccc(CCc2nc3cc(-c4c(C)noc4C)ccc3n2C2CCN(C(C)=O)CC2)cc1Cl

pIC50 [2]: 7.31
Activity [5]: Active
Activity [6]: Active
Activity [7]: Active
pIC50 (MCF7): 6.02
SMILES: COc1ccc(N2C(=O)C[C@H]2c2nc3cc(-c4c(C)noc4C)ccc3n2[C@H]2CC[C@H](OC)CC2)cc1Cl
Activity (OPM-2 [3]): 38.27%
pIC50 (SCC-9): 5.73
pIC50 (OPM-2 [4]): 5.96
pIC50 (CWR22R): 5.43
Activity (OPM-2 [8]): 90%

Activity [9]: Dde
pIC50 [2]: 7.09
pIC50 (MCF7): 5.70
SMILES: COc1ccc(N2C(=O)C[C@@H]2c2nc3cc(-c4c(C)noc4C)ccc3n2[C@H]2CC[C@H](OC)CC2)cc1Cl
pIC50 (SCC-9): 5.50
pIC50 (OPM-2 [4]): 5.81
pIC50 (CWR22R): 5.43

pIC50 [2]: 7.32
Activity [7]: Active
pIC50 (MCF7): 5.55
SMILES: COc1ccc(CCc2nc3cc(-c4c(C)noc4C)ccc3n2[C@H]2CC[C@H](O)CC2)cc1Cl
Activity (OPM-2 [3]): 28.49%
pIC50 (SCC-9): 5.43
pIC50 (OPM-2 [4]): 5.86
pIC50 (CWR22R): 5.17
Activity (OPM-2 [8]): 90%

pIC50 [2]: 6.83
SMILES: COc1ccc(CCc2nc3cc(-c4c(C)noc4C)ccc3n2C2CCN(S(C)(=O)=O)CC2)cc1Cl

pIC50 [2]: 6.81
SMILES: COc1ccc(CCc2nc3cc(-c4c(C)noc4C)ccc3n2[C@H]2C[C@H](O)C2)cc1Cl

Activity [9]: Dde
pIC50 [2]: 7.01
pIC50 (MCF7): 5.25
SMILES: COc1ccc(CCc2nc3cc(-c4c(C)noc4C)ccc3n2[C@H]2CC[C@H](OC)CC2)cc1Cl
pIC50 (SCC-9): 5.59
pIC50 (OPM-2 [4]): 5.64
pIC50 (CWR22R): < 5.00

pIC50 [2]: 6.05
SMILES: COc1ccc(CCc2nc3cc(-c4c(C)noc4C)ccc3n2[C@H]2CC[C@H](C(F)(F)F)CC2)cc1Cl
